# Experimental data: patent US5340587A, “Liposome/bronchodilator method & System” (priority 1989, dated 1994)
# Where a name gives a salt, the structure may show the parent alone.
# Legend:
# [1] = Table 1; cited from earlier work
# bronchoconstriction = details: free vs liposomal-entrapped MPS; cited from earlier work
# [2] = tested on: histamine-induced bronchoconstriction; test: determination of therapeutic dose of free drug against histamine-induced bronchoconstriction; format: in vivo, guinea pigs; details: free form, inhalation
# Method: The therapeutic doses of terbutaline sulfate, and salbutamol sulfate which were used in the present study were determined as follows. […] These drug doses, adjusted for the body weight of the test animal, were administered by inhalation in free form, and their effects on the histamine-induced bronchoconstriction were determined as above. MPS was also tested in the initial drug-dose study. […] The therapeutic doses per animal determined from the study were: 39 μg MPS (2× recommended dose); 15 μg terbutaline (2× recommended dose); and 1.5 μg salbutamol (1× recommended dose). The therapeutic dose of MPS is approximately 60 times less than the dose used in the experiments reported above, and in Example VI.
# [3] = blood plasma MPS levels after inhalation (FIG. 2); format: in vivo; details: inhaled or intranasal
# [4] = in vivo; cited from earlier work
# [5] = tested on: acetylcholine-induced bronchoconstriction; test: protection against acetylcholine-induced bronchoconstriction (FIG. 4); format: in vivo, mongrel dogs; details: inhalation, high dose MPS, about four hours (FIG. 4)
# Text: This parameter reflects the increase in airway resistance (bronchoconstriction) immediately after administration of acetylcholine to induce bronchoconstriction. That is, the percent protection indicates the percent increase in airway resistance relative to a pre-drug level, following acetylcholine. […] It is noted that this study involved relatively high dose levels of MPS (which were needed to protect against the severe bronchoconstriction induced by the acetylcholine aerosols).
# This example examines the therapeutic effect of free and liposome-encapsulated metaproteranol sulfate (elevated dosage levels) on bronchoconstriction induced by aerosols of acetylcholine (ACH).
# Two mongrel dogs, a 20 kg male and a 30 kg female, were anesthetized with an initial i.v. bolus injection of sodium thiopental (10 mg/kg body weight) and sodium pentabarbital (20 mg/kg body weight) and subsequent boluses of sodium thiopental every thirty minutes, or as needed, to maintain the dog in an anesthetized state over a four hour test period. […] Air flow was monitored by a pneumotachograph connected to the endotracheal tube and the respirator and connected to a differential pressure transducer. Transpulmonary pressure was monitored by a differential pressure transducer, one port connected to a side arm of the tracheal tube and the other end connected to the esophageal balloon catheter. […]
# [6] = in vivo
# Method: This liposome-protective effect is illustrated in FIGS. 1A and 1B, which graph percent increases in heart rate, above a pre-drug level, in animals receiving a β2 -agonist in free (open squares), or liposomal form. The two liposomal formulations are characterized by relatively short drug-release half life (open circles, FIG. 1A), or a relatively long drug-release half life (closed circles, FIG. 1B). Heart rate was measured at 15, 45, 75, and 105 minutes after drug administration, and immediately before the animal received a bronchoconstricting dose of histamine by inhalation. […] With liposome-encapsulated drug, however, the increase in heart rate was substantially lower and more constant over the test period.
# [7] = tested on: histamine-induced bronchoconstriction; test: histamine-induced bronchoconstriction: airway resistance and lung compliance (FIGS. 5, 6); format: in vivo, guinea pigs; details: terbutaline, relative to baseline
# Method: The study described in Example VII illustrates the increased protection, at extended time periods, achievable with liposomal drug administration. Briefly summarizing the Example VII study, terbutaline sulfate or salbutamol sulfate, in either free or liposomal form, was administered by inhalation. At several times after drug administration, the test animal was challenged with aerosolized histamine, to induce bronchoconstriction. At the beginning of each test, prior to administration of the β2 -agonist, and immediately after each histamine dose, airway resistance and lung compliance in the animal were measured. Airway resistance, which is measured at points of equal lung volume during the breathing cycle, provides a measure of the resistance to gas flow through the large air passages of the lung. Lung compliance, which is measured at zero flow points in the breathing cycle, reflects the pressure changes required to effect the lung volume change over the breathing cycle. The resistance and compliance values determined at the beginning of the test serve as baseline values for determining the percentage changes in resistance and compliance, in response to histamine-induced bronchoconstriction.
# Each time point was calculated as the difference in airway resistance shortly after histamine administration and at the beginning of the test (baseline value) divided by the baseline value. […]
Structure (SMILES),Tc (transition temperature) [1],protection against bronchoconstriction at the recommended dose [2],therapeutic dose per animal [2],further results
"CCCCCCCCCCCCCC(=O)OC[C@H](COP(=O)([O-])OCC[N+](C)(C)C)OC(=O)CCCCCCCCCCCCC [DMPC, dimyristoyl phosphatidyl choline]",23 C.°,,,
"CCCCCCCC/C=C\CCCCCCCC(=O)OCC(COP(=O)([O-])OCC[N+](C)(C)C)OC(=O)CCCCCCC/C=C\CCCCCCCC (stereo not drawn) [DOPC, dioleoyl phosphatidyl choline]",-22 C.°,,,
"CCCCCCCCCCCCCCCC(=O)OC[C@H](COP(=O)([O-])OCC[N+](C)(C)C)OC(=O)CCCCCCCCCCCCCCC [DPPC, dipalmitoyl phosphatidyl choline]",41 C.°,,,
"CCCCCCCCCCCCCCCCCC(=O)OCC(COP(=O)([O-])OCC[N+](C)(C)C)OC(=O)CCCCCCCCCCCCCCCCC (stereo not drawn) [DSPC, distearoyl phosphatidyl choline]",55 C.°,,,
"CC(C)NCC(O)c1cc(O)cc(O)c1 (stereo not drawn) [MPS, metaproteranol sulfate]",,necessary to double the recommended dose in order to achieve effective protection,39 µg,"percent protection against bronchoconstriction (bronchoconstriction): about the same for both free drug and liposomal-entrapped drug; Cmax ([3]; free drug within 15 minutes, read-out: blood plasma MPS level, high): ~80 ng/mL; concentration at 2 h ([3]; over a two-hour period, read-out: blood plasma MPS level at end of test period): ~20 ng/mL; plasma level course [4]: rapid drop in plasma levels; percent protection from ACH-induced bronchoconstriction [5]: substantially the same degree of protection against ACH-induced bronchoconstriction; increase in heart rate [6]: relatively high initial heart rate increase, with a slow decline over the test period"
CC(C)(C)NCC(O)c1ccc(O)c(CO)c1 (stereo not drawn) [salbutamol sulfate],,good protection against bronchoconstriction,1.5 µg,
CC(C)(C)NCC(O)c1cc(O)cc(O)c1 (stereo not drawn) [terbutaline sulfate],,necessary to double the recommended dose in order to achieve effective protection,15 µg,"increase in airway resistance, end of test period ([7]; 115 minutes (FIG. 5A)): over 160%; increase in airway resistance, initial ([7]; first histamine challenge (FIG. 5A)): 60%"
